Test results as given in US5001058A (Bristol-Myers Company, priority 1989, dated 1991).
≈ marks a conversion by molar mass, not a printed value. Where two headings read alike, the source gives them in different places.

Experiments:
[1] = test system: Staphylococcus epidermidis D153; experiment: Antimicrobial activity, two-fold serial dilution in agar media; format: cell-based; details: Nutrient agar
[2] = test system: RNA synthesis in L1210 leukemia cells; experiment: Inhibition of RNA synthesis in L1210 leukemia cells (labelled precursor incorporation); format: cell-based, murine; details: Mus musculus, 14C-uridine, 15 min with test material, then 60 min
[3] = test system: Clostridium perfringens A9635; experiment: microbe, parasite or virus in culture
[4] = test system: Klebsiella pneumoniae D11; experiment: microbe, parasite or virus in culture
[5] = test system: Micrococcus luteus PCI 1001; experiment: Antimicrobial activity, two-fold serial dilution in agar media; format: cell-based; details: PCI1001, Nutrient agar
[6] = test system: Cryptococcus neoformans D49; experiment: microbe, parasite or virus in culture
[7] = test system: B16-F10 (murine melanoma) cells; experiment: In vitro cytotoxicity, neutral red staining; format: cell-based; details: Mus musculus; B16-F10, 72 hours, 37° C.
[8] = test system: Bacillus subtilis PCI 219; experiment: Antimicrobial activity, two-fold serial dilution in agar media; format: cell-based; details: PCI219, Nutrient agar
[9] = test system: Trichophyton mentagrophytes D155; experiment: microbe, parasite or virus in culture
[10] = test system: Proteus mirabilis A9554; experiment: microbe, parasite or virus in culture
[11] = test system: HCT-116 (human colon carcinoma) cells; experiment: In vitro cytotoxicity, neutral red staining; format: cell-based; details: HCT-116, 72 hours, 37° C.
[12] = test system: Pseudomonas aeruginosa A9930; experiment: microbe, parasite or virus in culture
[13] = test system: Staphylococcus aureus Smith; experiment: Antimicrobial activity, two-fold serial dilution in agar media; format: cell-based; details: Nutrient agar
[14] = test system: Aspergillus fumigatus IAM 2530; experiment: microbe, parasite or virus in culture; details: IAM2530
[15] = test system: macromolecule (DNA, RNA and protein) synthesis in L1210 murine leukemia cells; experiment: Inhibitory effects on macromolecule (DNA, RNA and protein) synthesis (summary); format: cell-based; details: in words
[16] = test system: P388 leukemia
[17] = test system: Moser (human colorectal carcinoma) cells; experiment: In vitro cytotoxicity, neutral red staining; format: cell-based
[18] = test system: Proteus vulgalis A9436; experiment: microbe, parasite or virus in culture
[19] = test system: Preopionibacterium acnes A21933; experiment: Antimicrobial activity, two-fold serial dilution in agar media; format: cell-based; details: Gifu anaerobic medium agar
[20] = test system: gram-negative bacteria; experiment: Antimicrobial activity, two-fold serial dilution in agar media (summary); format: cell-based; details: in words
[21] = test system: Yeast and fungi; experiment: as above; format: cell-based; details: in words
[22] = test system: Clostridium difficile A21675; experiment: microbe, parasite or virus in culture; details: Clostridioides difficile
[23] = test system: Escherichia coli NIHJ; experiment: microbe, parasite or virus in culture
[24] = test system: DNA synthesis in L1210 leukemia cells; experiment: Inhibition of DNA synthesis in L1210 leukemia cells (labelled precursor incorporation); format: cell-based, murine; details: Mus musculus, 3H-thymidine, 15 min with test material, then 60 min
[25] = test system: Streptococcus pyogenes A20201; experiment: Antimicrobial activity, two-fold serial dilution in agar media; format: cell-based; details: Nutrient agar
[26] = test system: murine and human tumor cells; experiment: In vitro cytotoxicity against tumor cells (summary); format: cell-based
[27] = test system: Bacteroides fragilis A22035; experiment: microbe, parasite or virus in culture
[28] = test system: anaerobic bacteria; experiment: Antimicrobial activity, two-fold serial dilution in agar media (summary); format: cell-based; details: in words
[29] = test system: Candida albicans IAM 4888; experiment: microbe, parasite or virus in culture; details: IAM4888
[30] = test system: Staphylococcus aureus 209P; experiment: Antimicrobial activity, two-fold serial dilution in agar media; format: cell-based; details: Nutrient agar
[31] = test system: Staphylococcus aureus A20234; experiment: as above; format: cell-based; details: Nutrient agar
[32] = test system: gram-positive bacteria; experiment: Antimicrobial activity, two-fold serial dilution in agar media (summary); format: cell-based; details: in words
[33] = Solubility; format: physicochemical
[34] = test system: Protein synthesis in L1210 leukemia cells; experiment: Inhibition of protein synthesis in L1210 leukemia cells (labelled precursor incorporation); format: cell-based, murine; details: Mus musculus, 3H-leucine, 15 min with test material, then 60 min
[35] = test system: Streptococcus faecalis A9612; experiment: microbe, parasite or virus in culture; details: Enterococcus faecalis
[36] = in words, literature; cited from earlier work

Cc1cc2c(c3oc(C(O)(CO)C4CO4)cc(=O)c13)C(=O)c1c(O)cccc1C2=O (stereo not shown) [BU-3839T]
MIC [1]: 0.1 µg/mL (≈ 0.245 µM) | IC50 [2]: 0.029 µg/mL (≈ 0.071 µM) | MIC [3]: 0.4 µg/mL (≈ 0.98 µM) | MIC [4]: 6.3 µg/mL (≈ 15.4 µM) | MIC [5]: 0.025 µg/mL (≈ 0.0612 µM) | MIC [6]: > 50 µg/mL | IC50 [7]: 0.0009 µg/mL (≈ 0.0022 µM) | MIC [8]: 0.05 µg/mL (≈ 0.122 µM) | MIC [9]: > 50 µg/mL | MIC [10]: > 50 µg/mL | IC50 [11]: 0.0026 µg/mL (≈ 0.00637 µM) | MIC [12]: > 50 µg/mL | MIC [13]: 0.05 µg/mL (≈ 0.122 µM) | MIC [14]: > 50 µg/mL | Inhibition of macromolecule synthesis [15]: inhibited DNA, RNA and protein synthesis non-specifically | Body weight change on day 4 ([16]; 0.008 mg/kg/day, QD × 3, ip): +1.0 g | MST (median survival time) ([16]; 0.008 mg/kg/day, QD × 3, ip): 11.0 days | T/C ([16]; 0.008 mg/kg/day, QD × 3, ip, T/C ≥ […] significant): 110% | MST (median survival time) ([16]; 0.5 mg/kg/day, QD × 3, ip): 14.5 days | MST (median survival time) ([16]; 1 mg/kg/day, QD × 3, ip): 7.0 days | maximum T/C value ([16]; P388 leukemia, ip, QD×3): 145% | Chemotherapeutic activity against P388 leukemia ([16]; in words): relatively broad and moderate chemotherapeutic activity | IC50 ([17]; Moser, 72 hours, 37° C., read-out: IC50): 0.0046 µg/mL (≈ 0.0113 µM) | MIC [18]: 6.3 µg/mL (≈ 15.4 µM) | MIC [19]: 0.8 µg/mL (≈ 1.96 µM) | Activity against gram-negative bacteria [20]: relatively weak activity | Susceptibility of yeast and fungi [21]: not susceptible | MIC [22]: 0.4 µg/mL (≈ 0.98 µM) | MIC [23]: > 50 µg/mL | IC50 [24]: 0.013 µg/mL (≈ 0.0318 µM) | MIC [25]: 0.1 µg/mL (≈ 0.245 µM) | Cytotoxicity superior to mitomycin C in terms of IC50 value ([26]; approximately, ratio to mitomycin C): 300-600 times | Cytotoxicity against tumor cells ([26]; in words): quite potent | MIC [27]: 0.1 µg/mL (≈ 0.245 µM) | Activity against anaerobic bacteria [28]: relatively weak activity | MIC [29]: > 50 µg/mL | MIC [30]: 0.05 µg/mL (≈ 0.122 µM) | MIC [31]: 0.05 µg/mL (≈ 0.122 µM) | Inhibitory activity against gram-positive bacteria [32]: remarkable inhibitory activity | Solubility ([33]; N,N-dimethylformamide): soluble | Solubility ([33]; alkaline water): slightly soluble | Solubility ([33]; chloroform): slightly soluble | Solubility ([33]; dimethyl sulfoxide): soluble | Solubility ([33]; methylene chloride): slightly soluble | Solubility ([33]; other organic solvents): almost insoluble | Solubility ([33]; water): almost insoluble | IC50 [34]: 0.039 µg/mL (≈ 0.0955 µM) | MIC [35]: 0.4 µg/mL (≈ 0.98 µM)

CO[C@@]12[C@H](COC(N)=O)C3=C(C(=O)C(C)=C(N)C3=O)N1C[C@@H]1N[C@@H]12 [Mitomycin C, reference compound]
Inhibition of macromolecule synthesis [15]: specific inhibition of DNA synthesis | IC50 ([17]; 72 h): 1.2 µg/mL (≈ 3.59 µM)

Cc1cc2c(c3oc(C4(C5CO5)CO4)cc(=O)c13)C(=O)c1c(O)cccc1C2=O (stereo not shown) [SF-2330]
Antibacterial activity [36]: antibacterial activity

CCC(C)c1cc(=O)c2c(CC(=O)O)cc3c(c2o1)C(=O)c1c(O)cccc1C3=O (stereo not shown) [SS-43405D]
Antibacterial activity [36]: antibacterial activity
